This is an account of results in US10265374B2, “Occidiofungin formations and uses thereof” (MISSISSIPPI STATE UNIVERSITY, priority 2014, dated 2019).

A short description of data set [1]: Solubility of occidiofungin. In kind it is physicochemical.
Data set [2] concerns yeast cells. To be noted: low drug concentrations (1 μg/ml, around 833 nM), Reference 2; cited from earlier work.
Data set [3] relates to Saccharomyces cerevisiae gene deletion mutants. The note with it: Δycal vs wild-type, Reference 2; cited from earlier work.
A short description of data set [4]: Pharmacokinetics of occidiofungin in DOPC or DOPC:DPPG vesicles. The note with it: vesicle formulations, 2.5 mg/kg i.v., mice. The class given is in vivo, mice. How it is done: Entrapment of occidiofungin in vesicles was done using 1,2-Dioleoyl-sn-glycero-3-phosphocholine (DOPC) and 1,2-dipalmitoyl-sn-glycero-3-[phospho-rac-(3-lysyl(1-glycerol))] (DPPG) from Avanti polar lipids. Lipid cake formation and subsequent hydration was done according to the manufacturer's recommendation. Briefly, 20 mg/ml of DOPC in chloroform was placed in a glass beaker and dried by vacuum evaporation to remove the organic solvent. The lipid film formed was hydrated using a 1 μg/μl solution of occidiofungin in 1.5% (2-Hydroxypropyl)-β-cyclodextrin (Alfa Aesar), while maintaining the lipid concentration at 20 mg/ml and the solution was sonicated to form the vesicles. Similarly, DPPG was mixed with DOPC at a ratio of 9:1 (DOPC:DPPG) to make a homogenous lipid mixture at a concentration of 20 mg/ml and the same process of drying and hydration was repeated to make vesicles. Following vesicle formation, estimation of the amount of occidiofungin trapped inside each type of vesicle was done. The mixture containing free and vesicle trapped occidiofungin was passed through a gel filtration column containing Sephadex G-10 beads. The void volume (containing only the vesicle trapped occidiofungin) was collected and occidiofungin extracted using methanol (50% final concentration). Liquid chromatography was done on the extracted sample, and a standard and the concentration of occidiofungin in the extracted sample was estimated by a comparison of peak volumes.
Occidiofungin in DOPC and DOPC-DPPG, at a concentration of 2.5 mg/kg, with ˜1.25 mg/kg entrapped in vesicles, was administered to six female BALB/c mice respectively via intravenous administration. […] The mice were weighed prior to the start of the experiment and every 24 hours post injection (hpi).
Blood was drawn at time points 1 hpi, 3 hpi, 5 hpi, 7 hpi, 9 hpi, 12 hpi, 18 hpi, 24 hpi and 48 hpi. 15 μl of blood was drawn from the lateral saphenous vein of each mouse for the first three time points. Blood from three mice were pooled together and added to 5 μl of 6.4% citric acid to prevent coagulation. From the fourth time point, blood was drawn from the tail vein of the mice. Blood samples were spun down at 13000 rpm for 10 minutes to separate the plasma. The plasma and the blood pellet obtained were stored separately at −20° C. until analysis. The plasma samples were thawed and the occidiofungin was extracted using a final concentration of 50% methanol. The protein precipitate was spun down at 13000 rpm for 10 minutes and the supernatant was used for analysis. Liquid chromatography was done using Acclaim 120 C18 columns (Length: 150 mm; I.D: 2.1 mm; 5 μm) to purify the occidiofungin in the sample. The occidiofungin was then subjected to MS/MS. Fragmentation of the occidiofungin (parent mass 1200 and 1216 Da) was carried out and the fragment of 1068 and 1084 Da m/z, which corresponds to the occidiofungin molecule (A and B forms, respectively) without the xylose sugar, was used for quantification of occidiofungin. A calibration curve constructed using standard concentrations of occidiofungin in plasma was used to analyze the samples obtained from the mice for pharmacokinetics (See FIGS. 6A-6B & 7A-7B).

The nature of data set [5]: Pharmacokinetics in mouse (i.v., LC-MS/MS of plasma). The class given is in vivo. To be noted: 2.5 mg/kg i.v., mice. How it is done: Six week old female BALB-C mice were used for this experiment. Occidiofungin, at a concentration of 2.5 mg/kg of body weight, was administered through the tail vein of each mouse. Nine mice were randomly selected for this experiment and were grouped into three groups of three mice each. Blood was drawn at 1, 3, 5, 7, 9, 12, 24 and 48 hours post injection (hpi) from the mice. 15 μl of blood was drawn from the lateral saphenous vein of each mouse for the first three time points. Blood from three mice were pooled together and added to 5 μl of 6.4% citric acid to prevent coagulation. From the fourth time point, blood was drawn from the tail vein of the mice. Blood samples were spun down at 13000 rpm for 10 minutes to separate the plasma. The plasma and the blood pellet obtained were stored separately at −20° C. for analysis. The plasma samples were thawed and the occidiofungin was extracted using a final concentration of 50% methanol. The protein precipitate was spun down at 13000 rpm for 10 minutes and the supernatant was used for analysis. The LC-MS/MS components were carried out at ThermoScientific laboratories. Liquid chromatography was done using Acclaim 120 C18 columns (Length: 150 mm; I.D: 2.1 mm; 5 μm) to purify the occidiofungin in the sample. The occidiofungin was then subjected to MS/MS using the ThermoScientific TSQ Vantage. Fragmentation of the occidiofungin (parent mass 1216 m/z) was carried out and the fragment of 1084 m/z, which corresponds to the occidiofungin molecule without the xylose sugar, was used for quantification of occidiofungin. All data were acquired and analyzed using TraceFinder (v 3.1).

For the substance occidiofungin, the “O.D.600 after addition of vehicle to the purified dried drug” value in data set [1] (1.5% hydroxy propyl-beta-cyclodextrin in PBS, suggests the drug went into solution) is reported as “negligible absorbance difference to vehicle without drug”. In addition, in data set [1] (aqueous buffers), the “solubility in aqueous buffers” value is on record as “relatively low”. In data set [2], the “morphological change of yeast cells” value is “appeared to shrink in size”. The “increase in resistance on deletion of the ycal gene” value in data set [3] is given as 2 fold. Moreover, the half-life (usually how long it takes for the measured level to halve) in data set [4] is ~14 h. In data set [5], the “clearance from the system by 24 hours” value is recorded as “rapidly cleared”, the “concentration at 9-12 hpi compared to the concentration at 7 hpi” value is 2.5 times, the “concentration of occidiofungin relative to the TC50 value for the cancer strains” value was “three to six fold higher” and the “time at which occidiofungin concentration peaked” value is “around 9 hpi”. In data set [5] (limit of quantification 50 ng/ml), the “concentration by 48 hours” value is recorded as “below the level of quantification”. Also, the “peak concentration in blood/plasma” value in data set [5] (tail vein) is 480 ng/mL.
